Laboratory results from patent US9938276B2, “6,5-bicyclic octahydropyrrolopyridine orexin receptor antagonists” (Merck Sharp & Dohme Corp., priority 2014, dated 2018).

Experiments:
human orexin-2 receptor = human orexin-2 receptor (Homo sapiens (Human), UniProt O43614); assay: hOX2R FLIPR Ca2+ flux assay; format: cell-based; settings: CHO cells expressing the receptor; agonist 70 pM Ala-6,12 human orexin-A
Experimental: In a typical experiment the OX1 and OX2 receptor antagonistic activity of the compounds of the present invention was determined in accordance with the following experimental method. For intracellular calcium measurements, Chinese hamster ovary (CHO) cells expressing the rat orexin-1 receptor or the human orexin-2 receptor, are grown in Iscove's modified DMEM containing 2 mM L-glutamine, […], 1% hypoxanthine-thymidine supplement, 100 U/ml penicillin, 100 μg/ml streptomycin and 10% heat-inactivated fetal calf serum (FCS). The cells are seeded at 20,000 cells/well into Becton-Dickinson black 384-well clear bottom sterile plates coated with poly-D-lysine. All reagents were from GIBCO-Invitrogen Corp. The seeded plates are incubated overnight at 37° C. and 5% CO2. Ala-6,12 human orexin-A as the agonist is prepared as a 1 mM stock solution in 1% bovine serum albumin (BSA) and diluted in assay buffer (HBSS containing 20 mM HEPES, 0.1% BSA and 2.5 mM probenecid, pH7.4) for use in the assay at a final concentration of 70 pM. Test compounds are prepared as 10 mM stock solution in DMSO, then diluted in 384-well plates, first in DMSO, then assay buffer. On the day of the assay, cells are washed 3 times with 100 μl assay buffer and then incubated for 60 min (37° C., 5% CO2) in 60 μl assay buffer containing 1 μM Fluo-4AM ester, 0.02% pluronic acid, and 1% BSA. The dye loading solution is then aspirated and cells are washed 3 times with 100 μl assay buffer. 30 μl of that same buffer is left in each well. Within the Fluorescent Imaging Plate Reader (FLIPR, Molecular Devices), test compounds are added to the plate in a volume of 25 μl, incubated for 5 min and finally 25 μl of agonist is added. Fluorescence is measured for each well at 1 second intervals for 5 minutes and the height of each fluorescence peak is compared to the height of the fluorescence peak induced by 70 pM Ala-6,12 orexin-A with buffer in place of antagonist. […] Alternatively, compound potency can be assessed by a radioligand binding assay (described in Bergman et. al. Bioorg. Med. Chem. Lett. 2008, 18, 1425-1430) in which the inhibition constant (Ki) is determined in membranes prepared from CHO cells expressing either the OX1 or OX2 receptor. The intrinsic orexin receptor antagonist activity of a compound which may be used in the present invention may be determined by these assays.

hOX1R = hOX1R (Homo sapiens, UniProt O43613); assay: hOX1R FLIPR Ca2+ flux assay; format: cell-based; settings: CHO cells expressing the receptor; agonist 70 pM Ala-6,12 human orexin-A

Chain of human orexin-2 receptor (O43614 whole entry): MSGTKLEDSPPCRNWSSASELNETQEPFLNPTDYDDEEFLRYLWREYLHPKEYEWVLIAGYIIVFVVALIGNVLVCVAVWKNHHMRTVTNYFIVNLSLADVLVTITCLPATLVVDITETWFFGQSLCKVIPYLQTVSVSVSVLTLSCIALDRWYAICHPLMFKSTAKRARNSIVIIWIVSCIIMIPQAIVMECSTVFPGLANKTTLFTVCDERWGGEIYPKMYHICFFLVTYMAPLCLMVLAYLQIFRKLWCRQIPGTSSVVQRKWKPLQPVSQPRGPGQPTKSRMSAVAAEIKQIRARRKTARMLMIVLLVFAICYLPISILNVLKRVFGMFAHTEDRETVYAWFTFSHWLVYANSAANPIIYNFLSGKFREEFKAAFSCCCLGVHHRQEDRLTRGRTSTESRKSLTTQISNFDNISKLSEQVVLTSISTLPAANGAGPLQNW

COc1ccnc(N2CC[C@@H]3CCN(C(=O)c4ccccc4-n4nccn4)C[C@@H]32)c1 [Example B3, (3aR, 7aR)-(2-(2H-1,2,3-triazol-2-yl)phenyl)(1-(4-methoxypyridin-2-yl)hexahydro-1H-pyrrolo[2,3-c]pyridin-6(2H)-yl)methanone]
IC50 (human orexin-2 receptor): 1.01 µM | IC50 (hOX1R): ≥ 10 µM

CCOc1ccnc(N2CC[C@@H]3CCN(C(=O)c4ccccc4-n4nccn4)C[C@@H]32)c1 [Example B4, (3aR, 7aR)-(2-(2H-1,2,3-triazol-2-yl)phenyl)(1-(4-ethoxypyridin-2-yl)hexahydro-1H-pyrrolo[2,3-c]pyridin-6(2H)-yl)methanone]
IC50 (human orexin-2 receptor): 0.766 µM | IC50 (hOX1R): ≥ 10 µM

N#Cc1cc(N2CC[C@@H]3CCN(C(=O)c4ccccc4-n4nccn4)C[C@@H]32)ncc1F [Example B5, 5-fluoro-2-[(3aR, 7aR)-6-{[2-(2H-1,2,3-triazol-2-yl)phenyl]carbonyl}octahydro-1H-pyrrolo[2,3-c]pyridin-1-yl]pyridine-4-carbonitrile]
IC50 (human orexin-2 receptor): 4.72 µM | IC50 (hOX1R): ≥ 10 µM

N#Cc1cccc(N2CC[C@@H]3CCN(C(=O)c4ccccc4-n4nccn4)C[C@@H]32)c1 [Example B6, 3-((3aR, 7aR)-6-(2-(2H-1,2,3-triazol-2-yl)benzoyl)octahydro-1H-pyrrolo[2,3-c]pyridin-1-yl)benzonitrile]
IC50 (human orexin-2 receptor): 1.73 µM | IC50 (hOX1R): ≥ 10 µM

O=C(c1ccccc1-n1nccn1)N1CC[C@H]2CCN(c3ncnc4[nH]ccc34)[C@H]2C1 [Example B7, (3aR, 7aR)-(2-(2H-1,2,3-triazol-2-yl)phenyl)(1-(7H-pyrrolo[2,3-d]pyrimidin-4-yl)hexahydro-1H-pyrrolo[2,3-c]pyridin-6(2H)-yl)methanone]
IC50 (human orexin-2 receptor): 10 µM | IC50 (hOX1R): 10 µM

O=C(c1ccccc1-n1nccn1)N1CC[C@H]2CCN(c3nccc4ncccc34)[C@H]2C1 [Example B8, 5-[(3aR, 7aR)-6-{[2-(2H-1,2,3-triazol-2-yl)phenyl]carbonyl}octahydro-1H-pyrrolo[2,3-c]pyridin-1-yl]-1,6-naphthyridine]
IC50 (human orexin-2 receptor): 2.52 µM | IC50 (hOX1R): 10 µM

O=C(c1ccccc1-n1nccn1)N1CC[C@H]2CCN(c3nccc4ccccc34)[C@H]2C1 [Example B9, (2-(2H-1,2,3-triazol-2-yl)phenyl)((3aR, 7aR)-1-(isoquinolin-1-yl)hexahydro-1H-pyrrolo[2,3-c]pyridin-6(2H)-yl)methanone]
IC50 (human orexin-2 receptor): 0.0408 µM | IC50 (hOX1R): 1.66 µM

O=C(c1ccccc1-n1nccn1)N1CC[C@H]2CCN(c3ccnc4ccccc34)[C@H]2C1 [Example B10, (2-(2H-1,2,3-triazol-2-yl)phenyl)((3aR, 7aR)-1-(quinolin-4-yl)hexahydro-1H-pyrrolo[2,3-c]pyridin-6(2H)-yl)methanone]
IC50 (human orexin-2 receptor): 3.43 µM | IC50 (hOX1R): 10 µM

COC(=O)c1csc(N2CC[C@@H]3CCN(C(=O)c4ccccc4-n4nccn4)C[C@@H]32)n1 [Example B11, methyl 2-((3aS, 7aR)-6-(2-(2H-1,2,3-triazol-2-yl)benzoyl)octahydro-1H-pyrrolo[2,3-c]pyridin-1-yl)thiazole-4-carboxylate]
IC50 (human orexin-2 receptor): 10 µM | IC50 (hOX1R): 10 µM

O=C(c1ccccc1-n1nccn1)N1CC[C@H]2CCN(c3nccn4nccc34)[C@H]2C1 [Example B13, (3aR, 7aR)-6-(2-(2H-1,2,3-triazol-2-yl)benzoyl)-1-(pyrazolo[1,5-a]pyrazin-4-yl)ocathydro-1H-pyrrolo[2,3-c]pyridin-1-ium]
IC50 (human orexin-2 receptor): 2.02 µM | IC50 (hOX1R): 10 µM

O=C(c1ccccc1-n1nccn1)N1CC[C@H]2CCN(c3nccn4ccnc34)[C@H]2C1 [Example B14, (2-(2H-1,2,3-triazol-2-yl)phenyl)((3aR, 7aR)-1-(imidazo[1,2-a]pyrazin-8-yl)hexahydro-1H-pyrrolo[2,3-c]pyridin-6(2H)-yl)methanone]
IC50 (human orexin-2 receptor): 1.07 µM | IC50 (hOX1R): ≥ 10 µM

O=C(c1ccccc1-n1nccn1)N1CC[C@H]2CCN(c3ncnc4sccc34)[C@H]2C1 [Example B15, (2-(2H-1,2,3-triazol-2-yl)phenyl)((3aR, 7aR)-1-(thieno[2,3-d]pyrimidin-4-yl)hexahydro-1H-pyrrolo[2,3-c]pyridin-6(2H)-yl)methanone]
IC50 (human orexin-2 receptor): ≥ 10 µM | IC50 (hOX1R): ≥ 10 µM

O=C(c1ccccc1-n1nccn1)N1CC[C@H]2CCN(c3nccc4cccnc34)[C@H]2C1 [Example B16, ((3aR, 7aR)-1-(1,7-naphthyridin-8-yl)hexahydro-1H-pyrrolo[2,3-c]pyridin-6(2H)-yl)(2-(2H-1,2,3-triazol-2-yl)phenyl)methanone]
IC50 (human orexin-2 receptor): 0.75 µM | IC50 (hOX1R): ≥ 10 µM

O=C(c1ccccc1-n1nccn1)N1CC[C@H]2CCN(c3ccc4ccccc4n3)[C@H]2C1 [Example B18, 2-[(3aR, 7aR)-6-{[2-(2H-1,2,3-triazol-2-yl)phenyl]carbonyl}octahydro-1H-pyrrolo[2,3-c]pyridin-1-yl]quinoline]
IC50 (human orexin-2 receptor): 1.53 µM | IC50 (hOX1R): 1.04 µM

O=C1OCc2c1ccnc2N1CC[C@@H]2CCN(C(=O)c3ccccc3-n3nccn3)C[C@@H]21 [Example B19, 4-[(3aR, 7aR)-6-{[2-(2H-1,2,3-triazol-2-yl)phenyl]carbonyl}octahydro-1H-pyrrolo[2,3-c]pyridin-1-yl]furo[3,4-c]pyridin-1(3H)-one]
IC50 (human orexin-2 receptor): 1.01 µM | IC50 (hOX1R): 10 µM

Cc1cncc(N2CC[C@@H]3CCN(C(=O)c4ccccc4-n4nccn4)C[C@@H]32)n1 [Example B20, (3aR, 7aR)-1-(6-methylpyrazin-2-yl)-6-{[2-(2H-1,2,3-triazol-2-yl)phenyl]carbonyl}octahydro-1H-pyrrolo[2,3-c]pyridine]
IC50 (human orexin-2 receptor): 2.08 µM | IC50 (hOX1R): ≥ 10 µM

Cc1ncc(N2CC[C@@H]3CCN(C(=O)c4ccccc4-n4nccn4)C[C@@H]32)nc1C [Example B21, (3aR, 7aR)-1-(5,6-dimethylpyrazin-2-yl)-6-{[2-(2H-1,2,3-triazol-2-yl)phenyl]carbonyl}octahydro-1H-pyrrolo[2,3-c]pyridine]
IC50 (human orexin-2 receptor): 0.948 µM | IC50 (hOX1R): 10 µM

Cc1cnc(C)c(N2CC[C@@H]3CCN(C(=O)c4ccccc4-n4nccn4)C[C@@H]32)n1 [Example B22, (3aR, 7aR)-1-(3,6-dimethylpyrazin-2-yl)-6-{[2-(2H-1,2,3-triazol-2-yl)phenyl]carbonyl}octahydro-1H-pyrrolo[2,3-c]pyridine]
IC50 (human orexin-2 receptor): 5.91 µM | IC50 (hOX1R): ≥ 10 µM

O=C(c1ccccc1-n1nccn1)N1CC[C@H]2CCN(c3cncc4ccccc34)[C@H]2C1 [Example B23, 4-[(3aR, 7aR)-6-{[2-(2H-1,2,3-triazol-2-yl)phenyl]carbonyl}octahydro-1H-pyrrolo[2,3-c]pyridin-1-yl]isoquinoline]
IC50 (human orexin-2 receptor): 7.07 µM | IC50 (hOX1R): 10 µM

CC(C)(O)c1csc(N2CC[C@H]3CCN(C(=O)c4ccccc4-n4nccn4)C[C@@H]32)n1 [Example C1]
IC50 (human orexin-2 receptor): 0.202 µM | IC50 (hOX1R): 10 µM

CC(C)(O)c1coc(N2CC[C@@H]3CCN(C(=O)c4ccccc4-n4nccn4)C[C@@H]32)n1 [Example C2]
IC50 (human orexin-2 receptor): 0.342 µM | IC50 (hOX1R): 10 µM

CC(O)(c1cncc(N2CC[C@@H]3CCN(C(=O)c4ccccc4-n4nccn4)C[C@@H]32)n1)C(F)(F)F (stereo partly drawn) [Example C3, 1,1,1-trifluoro-2-{6-[(3aR, 7aR)-6-{[2-(2H-1,2,3-triazol-2-yl)phenyl]carbonyl}octahydro-1H-pyrrolo[2,3-c]pyridin-1-yl]pyrazin-2-yl}propan-2-ol]
IC50 (human orexin-2 receptor): 3.34 µM | IC50 (hOX1R): ≥ 10 µM

CC(C)(O)c1cccc(N2CC[C@@H]3CCN(C(=O)c4ccccc4-n4nccn4)C[C@@H]32)c1 [Example C4, 2-{3-[(3aR, 7aR)-6-{[2-(2H-1,2,3-triazol-2-yl)phenyl]carbonyl}octahydro-1H-pyrrolo[2,3-c]pyridin-1-yl]phenyl}propan-2-ol]
IC50 (human orexin-2 receptor): 0.0486 µM | IC50 (hOX1R): 10 µM

CC(C)(O)c1ccnc(N2CC[C@@H]3CCN(C(=O)c4ccccc4-n4nccn4)C[C@@H]32)c1 [Example C5, 2-{2-[(3aR, 7aR)-6-{[2-(2H-1,2,3-triazol-2-yl)phenyl]carbonyl}octahydro-1H-pyrrolo[2,3-c]pyridin-1-yl]pyridin-4-yl}propan-2-ol]
IC50 (human orexin-2 receptor): 0.125 µM | IC50 (hOX1R): 10 µM

CC(C)(O)c1cnc(N2CC[C@@H]3CCN(C(=O)c4ccccc4-n4nccn4)C[C@@H]32)nc1 [Example C6, 2-{2-[(3aR, 7aR)-6-{[2-(2H-1,2,3-triazol-2-yl)phenyl]carbonyl}octahydro-1H-pyrrolo[2,3-c]pyridin-1-yl]pyrimidin-5-yl}propan-2-ol]
IC50 (human orexin-2 receptor): 1.83 µM | IC50 (hOX1R): 10 µM
